Laboratory results as given in ChEMBL document CHEMBL1201862, “PubChem BioAssay data set” (2004).
Activity calls are given as the source filed them.

Columns and labels:
CHO-K1 = experiment: (§1) Counterscreen for antagonists of the orexin 1 receptor (OX1R; HCRTR1): Homogeneous time resolved fluorescence (HTRF)-based cell-based dose response assay to identify antagonists of the parental CHO-K1 cell line. [Related pubchem assays (depositor defined):AID434989, AID435008, AID463079, AID485270, AID492963, AID492964, AID492965, AID493232, AID504699, AID504701]; type: functional; conditions: Cricetulus griseus
[1] = as §1, with “Fluorescence-based” for “Homogeneous time resolved fluorescence (HTRF)-based”, “cell-based high throughput” for “cell-based”, “CHO” for “CHO-K1”; type: functional
[2] = molecular target: T1, Orexin/Hypocretin receptor type 1 (Homo sapiens, UniProt O43613); experiment: Homogeneous Time Resolved Fluorescence (HTRF)-based cell-based high throughput dose response assay for antagonists of the orexin 1 receptor (OX1R; HCRTR1). [Related pubchem assays (depositor defined):AID434989, AID435008, AID463079, AID485270, AID492963, AID492964, AID492965, AID493232, AID504717, AID504718]; type: functional
T1 sequence (O43613 whole entry): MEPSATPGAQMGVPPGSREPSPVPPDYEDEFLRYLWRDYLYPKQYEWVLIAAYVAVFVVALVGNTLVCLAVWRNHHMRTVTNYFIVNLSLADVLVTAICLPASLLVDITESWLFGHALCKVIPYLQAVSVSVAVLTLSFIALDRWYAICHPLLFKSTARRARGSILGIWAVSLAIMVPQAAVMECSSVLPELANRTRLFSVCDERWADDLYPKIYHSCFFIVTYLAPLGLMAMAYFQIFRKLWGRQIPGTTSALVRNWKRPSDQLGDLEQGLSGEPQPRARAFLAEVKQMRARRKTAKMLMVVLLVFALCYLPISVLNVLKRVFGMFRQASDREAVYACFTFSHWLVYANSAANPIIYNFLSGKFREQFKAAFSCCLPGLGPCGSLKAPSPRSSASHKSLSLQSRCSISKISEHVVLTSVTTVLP

[3] = molecular target: T1, Orexin/Hypocretin receptor type 1; experiment: Fluorescence-based cell-based high throughput dose response assay for antagonists of the orexin 1 receptor (OX1R; HCRTR1). [Related pubchem assays (depositor defined):AID434989, AID435008, AID463079, AID485270, AID492963, AID492964, AID492965, AID493232, AID504717, AID504718]; type: functional
Orexin receptor type 2 [4] = molecular target: T2, Orexin receptor type 2 (Homo sapiens, UniProt O43614); experiment: Counterscreen assay for antagonists of the orexin 1 receptor (OX1R; HCRTR1): Fluorescence-based cell-based dose response assay for antagonists of the orexin 2 receptor (OX2R; HCRTR2), run by assay provider.; type: functional
T2 sequence (O43614 whole entry): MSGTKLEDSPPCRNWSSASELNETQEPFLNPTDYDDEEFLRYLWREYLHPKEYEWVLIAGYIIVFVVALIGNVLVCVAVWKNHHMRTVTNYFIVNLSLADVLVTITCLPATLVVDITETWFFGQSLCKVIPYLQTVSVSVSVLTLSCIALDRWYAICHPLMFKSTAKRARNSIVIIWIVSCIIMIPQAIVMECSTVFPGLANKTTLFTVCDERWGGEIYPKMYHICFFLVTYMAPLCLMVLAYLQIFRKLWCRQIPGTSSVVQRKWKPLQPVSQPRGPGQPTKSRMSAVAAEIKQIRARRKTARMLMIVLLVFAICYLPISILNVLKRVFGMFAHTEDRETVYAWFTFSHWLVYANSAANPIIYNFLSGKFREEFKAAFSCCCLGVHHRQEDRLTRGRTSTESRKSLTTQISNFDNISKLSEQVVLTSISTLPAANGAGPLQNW

Orexin receptor type 2 [5] = molecular target: T2, Orexin receptor type 2; experiment: Counterscreen assay for antagonists of the orexin 1 receptor (OX1R; HCRTR1): Homogeneous Time Resolved Fluorescence (HTRF)-based cell-based dose response assay for antagonists of the orexin 2 receptor (OX2R; HCRTR2), run by assay provider.; type: functional
[6] = Luminescence-based cell-based high throughput dose response assay to identify activators of the DAF-12 from the parasite S. stercoralis (ssDAF-12).; type: functional
[7] = molecular target: T3, Oxysterols receptor LXR-beta (Homo sapiens, UniProt P55055); experiment: LXR agonists, Gal4 luciferase reporter, dose response, counter-screen for ssDAF-12 agonist project, cell-based, luminescence, HEK293, S. stercoralis campaign (AID 720737); type: functional; conditions: read-out: IC50 (the source's name)
T3 sequence (P55055 whole entry): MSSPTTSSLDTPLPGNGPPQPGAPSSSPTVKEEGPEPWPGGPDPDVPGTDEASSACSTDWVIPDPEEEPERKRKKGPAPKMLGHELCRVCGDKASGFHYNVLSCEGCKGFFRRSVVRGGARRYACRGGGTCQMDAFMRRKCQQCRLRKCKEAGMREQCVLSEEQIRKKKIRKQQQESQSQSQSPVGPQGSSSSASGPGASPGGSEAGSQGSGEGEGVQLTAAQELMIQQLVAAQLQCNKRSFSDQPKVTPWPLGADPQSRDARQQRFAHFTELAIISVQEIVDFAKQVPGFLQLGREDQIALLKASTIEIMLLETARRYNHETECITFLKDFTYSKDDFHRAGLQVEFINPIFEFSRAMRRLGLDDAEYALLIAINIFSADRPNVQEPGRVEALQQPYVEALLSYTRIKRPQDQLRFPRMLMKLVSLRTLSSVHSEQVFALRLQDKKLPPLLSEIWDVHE

[8] = molecular target: T4, Probable nicotinate-nucleotide adenylyltransferase (Staphylococcus aureus (strain N315), UniProt P65502); type: functional, Staphylococcus aureus subsp. aureus N315;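 for IC50 Mean: confirmatory dose-response retesting of NadD inhibitor hits first found in an ultra-high-throughput screen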
[9] = molecular target: T4, Probable nicotinate-nucleotide adenylyltransferase; type: functional, Staphylococcus aureus subsp. aureus N315; conditions: read-out: IC50_Mean
[10] = molecular target: T5, Corticotropin-releasing factor receptor 2/Corticotropin-releasing factor-binding protein (Homo sapiens, UniProt P24387+Q13324); experiment: Dose Response confirmation of uHTS hits for small molecule antagonists of the CRF-binding protein and CRF-R2 receptor complex.; type: functional; conditions: read-out: IC50_Mean
T5 sequence (Q13324 whole entry): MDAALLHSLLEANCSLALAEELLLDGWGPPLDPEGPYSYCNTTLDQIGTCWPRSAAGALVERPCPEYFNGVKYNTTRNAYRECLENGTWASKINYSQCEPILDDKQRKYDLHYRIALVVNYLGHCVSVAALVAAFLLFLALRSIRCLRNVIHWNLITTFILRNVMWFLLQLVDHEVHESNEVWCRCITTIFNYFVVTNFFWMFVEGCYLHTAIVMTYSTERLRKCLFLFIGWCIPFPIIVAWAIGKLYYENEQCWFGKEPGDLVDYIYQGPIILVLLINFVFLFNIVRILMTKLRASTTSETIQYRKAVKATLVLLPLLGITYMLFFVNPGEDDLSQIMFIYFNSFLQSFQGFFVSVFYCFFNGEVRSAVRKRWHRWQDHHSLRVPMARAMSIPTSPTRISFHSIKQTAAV
T5 sequence (P24387 whole entry): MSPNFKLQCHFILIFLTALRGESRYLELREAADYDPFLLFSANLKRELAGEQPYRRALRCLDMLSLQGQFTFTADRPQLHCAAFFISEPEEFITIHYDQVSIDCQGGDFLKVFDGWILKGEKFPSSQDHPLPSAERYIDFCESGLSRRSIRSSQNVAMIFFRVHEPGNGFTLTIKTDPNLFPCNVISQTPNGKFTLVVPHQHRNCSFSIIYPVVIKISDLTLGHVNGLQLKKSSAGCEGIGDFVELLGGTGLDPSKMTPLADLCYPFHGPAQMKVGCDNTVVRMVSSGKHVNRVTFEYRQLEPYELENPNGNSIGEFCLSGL

[11] = molecular target: T5, Corticotropin-releasing factor receptor 2/Corticotropin-releasing factor-binding protein; experiment: activators of CRF receptor 2 with binding protein – uHTS hits, confirmation (AID 602473); type: functional; conditions: read-out: EC50_Mean
[12] = blockers of CRF-binding protein–CRF-R2 complex – cell-based, uHTS hits, 384-well, dose response (AID 651639); type: functional, Homo sapiens; conditions: read-out: IC50_Mean

| IC50 [10] | EC50 [11] | IC50 [12] | SMILES | IC50 (CHO-K1) | IC50 [1] | IC50 [2] | IC50 [3] | IC50 (Orexin receptor type 2 [4]) | IC50 (Orexin receptor type 2 [5]) | IC50 [6] | EC50 [7] | IC50 [8] | IC50 [9] |
| --- | --- | --- | --- | --- | --- | --- | --- | --- | --- | --- | --- | --- | --- |
|  |  |  | COc1cc(OC)c(-c2nc3ccccc3s2)cc1OC | > 66.2 µM (inactive) | > 49.7 µM (inactive) | 460 nM (active) | 5.47 µM (active) | > 88.8 µM (inactive) | > 50 µM (inactive) |  |  |  |  |
|  |  |  | Cc1ccc(NC(=O)c2ccc3ccccc3n2)nc1 | > 66.2 µM (inactive) | > 49.7 µM (inactive) | 1640 nM (active) | 10.4 µM (inactive) | > 88.8 µM (inactive) | 2.35 µM (active) | > 67.5 µM (inactive) | > 67.5 µM (inactive) |  |  |
|  |  |  | NC(CSC1(c2ccc(Cl)cc2)c2ccccc2-c2ccccc21)C(=O)O (centres undefined) |  |  |  |  |  |  |  |  | 11.7 µM (active) | 34.2 µM (active) |
| 24 µM (active) | > 53 µM (inactive) | 13.4 µM (active) | COC(=O)CSC1=C(C#N)C(c2ccc(Cl)cc2)C(C(=O)OC)C(=O)N1 (centres undefined) |  |  |  |  |  |  |  |  |  |  |
